Reference: patent publication US10588921B2, “Drug for the treatment of cholesterol accumulation disorders” (NATIONAL UNIVERSITY CORPORATION KUMAMOTO UNIVERSITY, priority 2013, dated 2020)

How the values were obtained:
rats = conditions: acute intravenous administration to rats; cited from earlier work
p62 [1] = assay: Immunoblot of insoluble p62 in HLCs; assay type: cell-based, human; conditions: 1 mM HPCD, 4 days; FIG. 23
Experimental: (§1) Protein lysates were separated by SDS-PAGE and transferred to PVDF membrane. LC3-I and LCS3-II were detected by anti-LC3 antibody (Cell Signaling). The data are normalized to α-tubulin expression. The HLCs were solved in RIPA buffer and then insoluble p62 was collected as a pellet after the centrifuge of the samples.
(§2) HLCs were culture with 1 mM 2-hydroxypropylcyclodextrins (HPCDs) for 4 days, and ATP level, expression levels of LC3 and p62, and insoluble p62 granules were measured.

NPC child patients = conditions: intravenous instillation 2500 mg/kg per time, 1 to 3 times per week, more than 1 year; cited from earlier work
NPC-derived HLCs [2] = assay: Measurement of ATP in HLCs; assay type: cell-based, human; conditions: 1 mM HPCD, 4 days; FIG. 21
Experimental: Hepatocyte-like cells derived from the iPSC lines were cultured in DMEM medium in the absence of glucose for 24 hours and were then cultured in the DMEM medium containing 10% FBS and high glucose for 6 hours. ATP was measured by ATP measurement Kit (TOYO INK), according to the manufacturer's protocol.
as §2

normal mice = assay: Acute toxicity test in normal mice; assay type: in vivo, mouse; conditions: 14.4 mM, 19.18 ml/g subcutaneous, 8-week-old normal mice; FIG. 34
Experimental: To confirm the excellent safety of HPGCD, acute toxicity was tested using normal mice. 14.4 mM HPBCD or HPGCD were injected in the amount of 19.18 ml/g into subcutaneous tissues of 8-week-old mice (n=10), and then survival rates were calculated.

NPC-derived HLCs [3] = assay type: cell-based, human; conditions: for cholesterol accumulation in NPC-HLCs (filipin staining): 1 mM hydroxypropyl-cyclodextrin, FIG. 18
Experimental: For hepatocyte-like cell (HLC) induction, the culture medium of semi-confluent human iPS cells were switched from the iPS medium to the definitive endoderm differentiation medium containing RPMI1640 supplemented with 2% B27 (Life technologies), 100 ng/m1 Activin A and 1 mM Sodium butyrate (NaB, SIGMA). The NaB concentration is changed in 0.5 mM on day 2. On day 4, the cells were harvested and re-seeded onto Matrigel-coated dishes in hepatic differentiation medium containing DMEM supplemented with 20% KSR, 1 mM glutamine, 1 mM NEAA, 0.1 mM 2-mercaptoethanol (SIGMA), 1% Dimethyl sulfoxide (DMSO, SIGMA). CXCR4 expressions were examined by FACS on day 4. On day 11, the cells were harvested and re-cultured in the hepatic maturation medium containing L15 medium (SIGMA) supplemented with 8.3% FBS, 8.3% tryptose phosphate broth (SIGMA), 10 mM hydrocortisone 21-hemisuccinate (SIGMA), 1 mM insulin (SIGMA), 2 mM glutamine, lOng/ml Hepatocyte growth factor (HGF, R & D) and 20 ng/ml Oncostatin M (OSM, R & D). On day 18, the cells were used for various experiments. For the hydroxypropyl cyclodextrin treatments, HLCs were cultured with 0.1 mM or 1 mM of the hydroxypropyl cyclodextrins for four days. For Annexin and TUNEL stainings, HLCs are cultured for four days and a week from day 18, respectively.
(§3) Alkaline phosphatase staining was performed using the Leukocyte Alkaline Phosphatase kit (SIGMA). For immunocytochemistry, cells were fixed with PBS containing 4% paraformaldehyde for 30 min at 4° C. For the molecules localized in nucleus, samples were treated with 0.2% Triton X-100 for 15 min at room temperature (RT). The cells were washed three times with PBS containing 2% FBS and then incubated overnight at 4° C. in PBS containing 2% FBS with primary antibodies. Nucleuses were stained with Propidium Iodide (PI, WAKO, Japan) and 1 mg/ml Hoechst 33258 (Invitrogen). The list of the primary and secondary antibodies is described in Table 3. For Filipin staining, samples were washed with PBS three times after the fixing and incubated with PBS containing 1.5 mg/ml glycine for 10 min at RT. The samples were then treated with PBS containing 10% FBS and 50 mg/ml Filipin (SIGMA). The data was calculated by UV absorption (360/460) and analyzed with Developer Toolbox software of IN CELL ANALYZER 6000 (GE Healthcare). The number of insoluble p62 granules were counted by IN CELL ANALYZER 6000 (GE Healthcare). To investigate glycogen accumulation, Periodic acid Schiff (PAS) staining of hepatocyte-like cells were performed by PAS staining solution (Muto Pure chemicals, Tokyo, Japan), according to the manufacturer's protocol.
The inventors therefore treated the HLCs derived from normal and NPC-iPS cell lines with a series of 2-hydroxypropyl-cyclodextrins with different cavity sizes, and observed effect of a series of hydroxypropyl-cyclodextrins. HLCs were cultured with 1 mM of the indicated hydroxypropyl-cyclodextrin for 4 days, stained with filipin and analyzed with an IN CELL ANALYSER (GE Healthcare) (FIG. 18).
(§4) The size of HLCs is decreased by the treatments with HPBCD and HPGCD (data not shown). Effects of various concentration of HPBCD and HPGCD in NPC-derived HLCs was observes. HLCs were cultured with HPBCD or HPGCD for 4 days, stained with filipin and analyzed with an IN CELL ANALYSER (GE Healthcare).

NPC-derived HLCs [4] = assay type: cell-based, human; conditions: cells treated during HLC differentiation; FIG. 20
NPC-derived HLCs [5] = assay: Cell size of HLCs; assay type: cell-based, human; conditions: data not shown
Experimental: The cell sizes of albumin-positive cells was calculated by Developer Toolbox software of IN CELL ANALYZER 6000 (GE Healthcare).
as §4

[6] = tested on: Npc1 gene-defective (Npc1−/−) mice; conditions: cited from earlier work
isolated erythrocyte = conditions: in vitro; cited from earlier work
NPC1-defective cells = conditions: reported; cited from earlier work
LC3 = assay: Immunoblot of LC3 expression in HLCs; assay type: cell-based, human; conditions: 1 mM HPCD, 4 days; FIG. 22
Experimental: as §1, §2

p62 [7] = assay: Count of insoluble p62 granules in HLCs (IN CELL ANALYZER); assay type: cell-based, human; conditions: 1 mM HPCD, 4 days; FIG. 24
Experimental: as §3, with “To investigate glycogen accumulation, Periodic acid Schiff (PAS) staining of hepatocyte-like cells were performed by PAS staining solution (Muto Pure chemicals, Tokyo, Japan), according to the manufacturer's protocol.” left out
as §2

**Q.** For `OC[C@H]1O[C@@H]2O[C@H]3[C@H](O)[C@@H](O)[C@@H](O[C@H]4[C@H](O)[C@@H](O)[C@@H](O[C@H]5[C@H](O)[C@@H](O)[C@@H](O[C@H]6[C@H](O)[C@@H](O)[C@@H](O[C@H]7[C@H](O)[C@@H](O)[C@@H](O[C@H]8[C@H](O)[C@@H](O)[C@@H](O[C@H]9[C@H](O)[C@@H](O)[C@@H](O[C@H]1[C@H](O)[C@H]2O)O[C@@H]9CO)O[C@@H]8CO)O[C@@H]7CO)O[C@@H]6CO)O[C@@H]5CO)O[C@@H]4CO)O[C@@H]3CO` [γ-cyclodextrin], which “intravenous dose showing lethality to 50% of population (LD50 value)” value (rats) is on record?
**A.** > 3750 mg/kg

**Q.** Which “intravenous dose showing lethality to 50% of population (LD50 value)” value (rats) does the source give for `OC[C@H]1O[C@@H]2O[C@H]3[C@H](O)[C@@H](O)[C@@H](O[C@H]4[C@H](O)[C@@H](O)[C@@H](O[C@H]5[C@H](O)[C@@H](O)[C@@H](O[C@H]6[C@H](O)[C@@H](O)[C@@H](O[C@H]7[C@H](O)[C@@H](O)[C@@H](O[C@H]8[C@H](O)[C@@H](O)[C@@H](O[C@H]1[C@H](O)[C@H]2O)O[C@@H]8CO)O[C@@H]7CO)O[C@@H]6CO)O[C@@H]5CO)O[C@@H]4CO)O[C@@H]3CO` [β-cyclodextrin] here?
**A.** 788 mg/kg

**Q.** Which “intravenous dose showing lethality to 50% of population (LD50 value)” value (rats) does the source give for `OC[C@H]1O[C@@H]2O[C@H]3[C@H](O)[C@@H](O)[C@@H](O[C@H]4[C@H](O)[C@@H](O)[C@@H](O[C@H]5[C@H](O)[C@@H](O)[C@@H](O[C@H]6[C@H](O)[C@@H](O)[C@@H](O[C@H]7[C@H](O)[C@@H](O)[C@@H](O[C@H]1[C@H](O)[C@H]2O)O[C@@H]7CO)O[C@@H]6CO)O[C@@H]5CO)O[C@@H]4CO)O[C@@H]3CO` [α-cyclodextrin] here?
**A.** 1000 mg/kg

**Q.** With `CC(O)COC[C@H]1O[C@@H]2O[C@H]3[C@H](O)[C@@H](O)[C@@H](O[C@H]4[C@H](O)[C@@H](O)[C@@H](O[C@H]5[C@H](O)[C@@H](O)[C@@H](O[C@H]6[C@H](O)[C@@H](O)[C@@H](O[C@H]7[C@H](O)[C@@H](O)[C@@H](O[C@H]8[C@H](O)[C@@H](O)[C@@H](O[C@H]1[C@H](O)[C@H]2O)O[C@@H]8COCC(C)O)O[C@@H]7COCC(C)O)O[C@@H]6COCC(C)O)O[C@@H]5COCC(C)O)O[C@@H]4COCC(C)O)O[C@@H]3COCC(C)O` (stereo partly drawn) [HPBCD, 2-hydroxypropyl-β-cyclodextrin] as the compound, how does the “amount of insoluble p62” value (p62 [1]) read?
**A.** reduced the amount of insoluble p62

**Q.** And the nervous symptom (NPC child patients)?
**A.** has not been improved yet

**Q.** And the “splenohepatomegaly and brain wave” value (NPC child patients)?
**A.** certain effect of reduction of splenohepatomegaly and improvement in a brain wave

**Q.** And the ATP level (NPC-derived HLCs [2])?
**A.** recovered

**Q.** And the “survival after injection (acute toxicity)” value (normal mice)?
**A.** Almost all mice injected with HPBCD dies up to 72 hours after injection

**Q.** And the “cholesterol accumulated in hepatocyte-like cells derived from NPC” value (NPC-derived HLCs [3])?
**A.** removed cholesterol accumulated in hepatocyte-like cells derived from NPC

**Q.** And the “function of the hepatocyte-like cells” value (NPC-derived HLCs [3])?
**A.** recovered the function of the hepatocyte-like cells

**Q.** And the “cholesterol accumulation in NPC-HLCs (filipin staining)” value (NPC-derived HLCs [3]; 4 days)?
**A.** significantly decreased

**Q.** What about the “cholesterol accumulation in NPC-derived HLCs (filipin staining)” value (NPC-derived HLCs [3]; low concentration 100 μM, 4 days, FIG. 19) of the same compound?
**A.** ineffective for reducing cholesterol accumulation

**Q.** What about the “free cholesterol accumulation, treatment during HLC differentiation” value (NPC-derived HLCs [4]) of the same compound?
**A.** effective at the intermediate stages in hepatic differentiation

**Q.** What about the “size of HLCs” value (NPC-derived HLCs [5]) of the same compound?
**A.** decreased

**Q.** What about the “improving effect compared with systemic administration” value ([6]; directly administered into the brain) of the same compound?
**A.** increased a few hundreds times

**Q.** And the “medical state or survival” value ([6]; intravenous administration)?
**A.** effective in improving the medical state or prolonging survival

**Q.** What about the “hemolytic activity (order)” value (isolated erythrocyte) of the same compound?
**A.** HPBCD>HPACD>HPGCD

**Q.** What about the “cholesterol accumulation in NPC1-defective cells” value (NPC1-defective cells) of the same compound?
**A.** effective for reducing of cholesterol accumulation

**Q.** And the “expression level of LC3” value (LC3)?
**A.** recovered to normal levels

**Q.** And the “proportion of HLCs carrying more than 40 granules of insoluble p62 aggregation” value (p62 [7])?
**A.** greatly reduced

**Q.** For 2-Hydroxypropyl-α-cyclodextrin [HPACD], which “activity on hepatocyte-like cells differentiation-induced from NPC patient-derived iPS cells” value (NPC-derived HLCs [3]) is on record?
**A.** no activity at all

**Q.** What about the “cholesterol accumulation in NPC-HLCs (filipin staining)” value (NPC-derived HLCs [3]; 4 days) of the same compound?
**A.** did not show any effect on cholesterol accumulation

**Q.** What about the “hemolytic activity (order)” value (isolated erythrocyte) of the same compound?
**A.** HPBCD>HPACD>HPGCD
